Like-named read-outs stand apart in the source and are kept apart here. Each block holds one compound with its values, some of them ahead of it.
Key:
Type in all cases: binding
[1] = molecular target: T1, Q8NEG5 (Homo sapiens, UniProt Q8NEG5); assay: Cysteine liganding, probe competition (Table 2B)
T1 construct: endogenous in cells; whole-cell lysate
T1 sequence (Q8NEG5 1-633): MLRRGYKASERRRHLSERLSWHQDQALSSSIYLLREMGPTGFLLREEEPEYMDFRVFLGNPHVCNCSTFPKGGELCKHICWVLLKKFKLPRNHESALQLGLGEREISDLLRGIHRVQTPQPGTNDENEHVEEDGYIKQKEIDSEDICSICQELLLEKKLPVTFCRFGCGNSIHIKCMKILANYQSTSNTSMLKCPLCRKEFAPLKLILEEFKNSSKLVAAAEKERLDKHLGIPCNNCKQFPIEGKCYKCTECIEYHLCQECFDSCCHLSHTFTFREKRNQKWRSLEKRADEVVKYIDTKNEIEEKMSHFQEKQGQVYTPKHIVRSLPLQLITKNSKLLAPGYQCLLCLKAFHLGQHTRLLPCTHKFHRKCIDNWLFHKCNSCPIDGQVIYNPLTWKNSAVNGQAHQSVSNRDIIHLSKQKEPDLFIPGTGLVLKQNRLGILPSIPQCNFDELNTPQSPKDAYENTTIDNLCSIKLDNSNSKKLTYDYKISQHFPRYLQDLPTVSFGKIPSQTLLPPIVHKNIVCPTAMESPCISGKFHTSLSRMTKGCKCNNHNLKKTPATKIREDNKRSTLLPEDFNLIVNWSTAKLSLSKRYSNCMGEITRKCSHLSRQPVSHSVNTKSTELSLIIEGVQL
Description: (§1) The following 96-well sample prep protocol was used for sample preparation.

[2] = molecular target: T2, cysteine residue illustrated in Table 1A or Table 2A (Homo sapiens, UniProt Q9GZQ3); assay: Competitive cysteine profiling of cell lysate with desthiobiotin iodoacetamide probe (96-well sample prep); conditions: UniProt Q9GZQ3; 500 uM
T2 construct: Cells were resuspended in cold PBS on ice and sonicated with a probe sonicator to achieve lysis; endogenous in cells
Description: (§2) In some embodiments, the solution sample (e.g., cell sample, cell lysate sample, or comprising isolated proteins) is incubated with a compound of Formula (I) for analysis of protein-probe interactions. In some instances, the solution sample (e.g., cell sample, cell lysate sample, or comprising isolated proteins) is further incubated in the presence of an additional compound probe prior to addition of the compound of Formula (I). […] In such instances, the solution sample is incubated with a probe and a ligand for competitive protein profiling analysis.
as §1
(§3) Cells were resuspended in cold PBS on ice and sonicated with a probe sonicator to achieve lysis. 200 μL of lysate containing 5 mg/ml proteome was treated with 2 μL of 100× compound stock in a 2-mL deep-well plate. The treated lysate was subsequently incubate at 25° C. for 1 hr with shaking at 600 rpm. The treated lysate was further incubated with 2 μL of 10 mM desthiobiotin iodoacetamide probe at 25° C. for 1 hr with shaking at 600 rpm. Next, the lysate was further treat with 20 μL of solution of PBS containing 11 mM MgSO4 and 2.5% Turbonuclease stock and incubated at 25° C. for 20 minutes with shaking at 600 rpm. 1.7 mL ice-cold acetone was added to each well and incubated at −20° C. for 2 hr, followed by max speed (4200 rpm) spin for 45 min. Acetone was then decanted and the plates were blotted to remove acetone. The plates were then dried in open air for 20 minutes. After drying, the plates were then covered with foil seal and stored at −80° C. overnight.
(§4) The next day, samples were re-suspended in 90 μL of solution of 9M urea, 50 mM ammonium bicarbonate and 10 mM DTT by incubating at 65C for 20 min with shaking at 1500 rpm. Next, samples were cooled to 37° C. and then 10 μL of 500 mM iodoacetamide solution (92.48 mg/ml) was added. The samples were then incubated at 37° C. for 30 min with shaking at 600 rpm.
(§5) ZEBA desalting plates were equilibrated 4 times using 250 μL of 2M urea, 50 mM ammonium bicarbonate solution followed by centrifugation at 1500 rpm for 2 minutes. After equilibration was complete, samples were applied to ZEBA desalting plate and spin at 1500 rpm for 2 min on top of 1 mL 96-well deep-well collection plate to buffer exchange samples. 4 μL of solution containing 25 mM CaCl2 and 0.25 mg/mL trypsin was added to the plate and the plate was then incubated at 37° C. for 2 hrs with shaking at 600 rpm. 300 μL of solution containing 5% high-capacity streptavidin agarose slurry in 25 mM Tris-HCl pH 7.5, 150 mM NaCl, and 0.1% NP-40 then added. The plate was incubated at 25° C. for 2 hrs with shaking at 600 rpm. Samples were transferred to 25 μm filter plate and spin at 1000 rpm for 2 min. Samples were then washed 3 times with 0.75 mL of wash buffer (25 mM Tris-HCl pH 7.5, 150 mM NaCl, and 0.1% NP-40) followed by washing 3 times with 0.75 mL PBS, and then 4 times with 0.75 mL water. After the washing step, samples were eluted into polypropylene 96-well plate by addition of 250 µL of 50% MeCN/water, 0.1% formic acid and allowed to gravity drip for 10 min, followed by centrifugation at 1000 rpm for 2 min. Speedvac was used to dry the plates at about 45° C. for […]. Then the plates were covered with foil seal and stored at −20° C.
(§6) Samples were resuspended by addition of 20 μl of 12.5% ACN, 0.1% formic acid solution, covered with foil seal, and incubated at 42° C. for 10 minutes with shaking at 600 rpm. Then add 30 μL of 0.1% formic acid solution was added and the plate was covered and incubated at 42° C. for 10 minutes with shaking at 600 rpm. Seal plate was then sealed with a 96-well silicon mat for analysis.

[3] = molecular target: T3, cysteine residue illustrated in Table 1A or Table 2A (Homo sapiens, UniProt A6NGE4); assay: as above; conditions: UniProt A6NGE4; 500 uM
T3 construct: Cells were resuspended in cold PBS on ice and sonicated with a probe sonicator to achieve lysis; endogenous in cells
Description: as §2, §1, §3, §4, §5, §6

[4] = molecular target: T4, cysteine residue illustrated in Table 1A or Table 2A (Homo sapiens, UniProt Q86X83); assay: as above; conditions: UniProt Q86X83
T4 construct: Cells were resuspended in cold PBS on ice and sonicated with a probe sonicator to achieve lysis; endogenous in cells
Description: as §2, §1, §3, §4, §5, §6

- inhibition at 500 µM ([1]; read-out: KB05_500 uM_percent_inhibition): 16%
- KB05_500 uM_percent_inhibition [2]: 56%
- KB05_500 uM_percent_inhibition [3]: 63%
- KB05_100 uM_percent_inhibition ([4]; 100 uM): 38%
- KB05_500 uM_percent_inhibition ([4]; 500 uM): 78%
Structure (SMILES): C=CC(=O)N(c1ccccc1)c1ccc(Br)cc1 [KB05]

Structure (SMILES): O=C(CCl)Nc1cc(C(F)(F)F)cc(C(F)(F)F)c1 [KBO3]
- KB03_500 uM_percent_inhibition ([1]; 500 uM): 8%
- KB03_500 uM_percent_inhibition [2]: 24%
- KB03_500 uM_percent_inhibition [3]: 41%
- KB03_100 uM_percent_inhibition ([4]; 100 uM): 35%
- KB03_500 uM_percent_inhibition ([4]; 500 uM): 72%

Structure (SMILES): COc1ccc2c(c1)CCCN2C(=O)CCl [KB02]
- inhibition at 500 µM ([1]; read-out: KB02_500 uM_percent_inhibition): 35%
- KB02_500 uM_percent_inhibition [2]: 11%
- KB02_500 uM_percent_inhibition [3]: 55%
- KB02_100 uM_percent_inhibition ([4]; 100 uM): 31%
- KB02_500 uM_percent_inhibition ([4]; 500 uM): 83%

— US20200239530A1, “COMPOUNDS AND METHODS OF MODULATING PROTEIN DEGRADATION” (Vividion Therapeutics, Inc., priority 2017, published 2020)
